# Reference: patent publication US20240391940A1, “FUSED RING-CONTAINING COMPOUND, APPLICATION THEREOF, AND COMPOSITION CONTAINING SAME” (GenEros Biopharma Ltd., priority 2020, published 2024)
# Values joined by “and” are separate entries in the source; they are usually repeats but may differ in a detail not shown here. Identical values can stand only once.
# Key:
# [1] = system: Apoe KO mouse atherosclerosis model; assay: Atherosclerosis model (Apoe KO mice, high-fat diet): blood lipid tests TCHO, TG, LDL-C, HDL-C; format: in vivo, C57BL/6 Apoe KO mice; parameters: blood lipids (CHO) in Apo E−/− mice / blood lipids (TG) in Apo E−/− mice / blood lipids (HDL-C) in Apo E−/− mice / blood lipids (LDL-C) in Apo E−/− mice: unit not given here; conditions: HFD + 284-60 mpk
# Experimental: (§1) Method: Apoe KO mice were tested for basal blood lipid levels and divided into a normal control group and a high-fat group. After 8 weeks of housing, the mice from the high-fat group were divided into 4 groups of about 8: a normal diet group (Chow), a high-fat diet model group (HFD), an Atorvastatin positive group (HFD+atorvastatin 5 mpk, QD), and a GEN1-284s group (284-60 mpk, QD). Oral administration was performed for 8 consecutive weeks, and the effect of the compound on the following indicators in Apoe KO mice was observed: 4 blood lipid tests (TC, TG, HDL-C and LDL-C), aortic plaque En-face staining, and pathological oil red staining of the cardiac outflow tract.
# (§2) Mice from the groups except for the normal diet control group (Chow) were fed with high-fat feed every day for […]. From week 9, each group was orally administered solvent or a corresponding test compound, and body weight data were recorded every day for 8 consecutive weeks. After the first 8 weeks' high-fat diet, blood samples were taken and centrifuged to separate serum, and the serum was tested for blood lipid levels (TCHO, TG, LDL-C and HDL-C). The mice were randomly grouped according to the TCHO results and body weight. During the subsequent 8 weeks of administration, blood lipid tests (TCHO, TG, LDL-C and HDL-C) were run once every 4 weeks.
# Mice were fasted overnight, and blood (150 μL) was collected via mandibular blood sampling or eye ball removal (for endpoint only) and left at room temperature for 2 h. The blood was centrifuged at 4° C. at 7000 rpm for 10 min, and serum was pipetted, quick-frozen in dry ice and then stored at −80° C. before analysis. The serum was tested for the biochemical indicators TCHO, TG, LDL-C and HDL-C using kits and a microplate reader.
# [2] = system: Apoe KO mouse atherosclerosis model; assay: Atherosclerosis model: aortic plaque En-face staining and plaque area; format: in vivo, C57BL/6 Apoe KO mice; conditions: HFD + 284-60 mpk, PO QD 8 W, individual mice; in % (unit assumed)
# Experimental: as §1, §2
# At the end of the experiment, the mice were euthanized by CO2 inhalation, and their hearts and aortas (from the aortic arch to the iliac artery) were isolated. The isolated artery was dissected longitudinally from the aortic arch to the iliac artery, fixed in 4% paraformaldehyde for 30 min, synchronized with 60% isopropanol for 10 min, then stained in 60% oil red for 30 min, and then washed with 60% isopropanol 3 times for 5 min each time. Finally, the stained aorta was washed with deionized water and photographed. The proportion of red plaque areas was measured using Image Pro Plus 6.0 (Media Cybernetics, MD, US).
# [3] = system: Apoe KO mouse atherosclerosis model; assay: Atherosclerosis model: plaques in the cardiac (left ventricular) outflow tract; format: in vivo, C57BL/6 Apoe KO mice; conditions: HFD + 284-60 mpk, PO QD 8 W, individual mice; in %
# Experimental: as §1, §2
# Mouse heart samples were fixed overnight in 4% paraformaldehyde solution and dehydrated in sucrose solution. Then, the samples were embedded with OCT (Sakura, Japan) under a stereo microscope and made into 10 μm frozen sections. The sections were stained with oil red ORO and then subjected to routine pathological examinations. Images of the outflow tract were acquired under an optical microscope at 4× magnification, and high-quality morphological observations were carried out using an eyepiece with 20× magnification. The percentage of intimal lesions in the cardiac outflow tract was calculated. The detection criteria followed the criteria for histological classification of human atherosclerotic disease, which are described in detail below:
# The area of plaques in the left ventricular outflow tract was measured using a microscope, and the proportion of plaques in the left ventricular outflow tract was calculated; this value reflects the degree of stenosis in the cardiac outflow tract vessel.
# [4] = system: IMQ-induced psoriasis mouse model; assay: IMQ-induced psoriasis mouse model (PASI scoring); format: in vivo, Balb/c mice; parameters: key to skin thickening in psoriasis mice (score) / skin redness in psoriasis mice (score) / skin scaling in psoriasis mice (score): 0 = none to 4 = very severe, per sign; conditions: 284-30 (30 mpk PO QD)
# Experimental: Method: This experiment used a total of 19 mice. A natural skin observation control (n=1). 2 cm^2 of hair was shaved off the backs of […] on day 0, the stubble was removed with a mild depilatory cream, and the original skin was photographed. 62.5 mg of IMQ was applied to each of the mice. There was a mock group (n=6), a DEX (3 mg/kg, PO., qD) group (n=6), and a GEN1-284s (30 mg/kg, PO, qD) group (n=6). On the day of modeling, administration was performed in a volume of 100 μL/20 g body weight 4 h after IMQ application. The PASI scoring method was used to score the erythema, swelling and scaling on the skin of the mice. The experiment took a total of 6 days. The first day was set to day 0. IMQ application and administration were not performed on day 5. The mice were sacrificed with carbon dioxide at the end of the experiment.
# The test animals were anesthetized with isoflurane. 2 cm^2 of hair was shaved off the backs of the mice, and the stubble was removed with a depilatory cream. IMQ application was performed for a total of 5 days, from day 0 to day 4. Scoring and IMQ application were performed every morning. Administration was performed in the afternoon
# Desquamation (D): means epidermal cells flake off. The severity scores of skin lesions were as follows: • 0=none; this sign cannot be confirmed by careful observation • 1=mild; this sign can be confirmed but careful observation is required • 2=moderate; this sign is more visible and can be confirmed immediately • 3=severe; this sign is marked. • 4=very severe; this sign is very marked.
# Induration I: 0—skin lesions are at the same level as normal skin; • 1—skin lesions are at slightly higher levels than normal skin surface; • 2—lesions moderately stick out and have round or slope-shaped borders; • 3—skin lesions are thick and markedly stick out; • 4—skin lesions are very thick and very markedly stick out.
# Erythema E: • 0—no visible erythema; • 1—light red; • 2—red; • 3—dark red; • 4—the red is very dark
# [5] = DAY 1, individual mice, 30 mg/kg
# [6] = DAY 2, individual mice, 30 mg/kg
# [7] = DAY 3, individual mice, 30 mg/kg
# [8] = DAY 4, individual mice, 30 mg/kg
# [9] = DAY 5, individual mice, 30 mg/kg
smiles,measurement,setting,value
O=C(Cc1ccc2ncccc2c1)N1CCC(n2c(=O)n(COP(=O)(O)O)c3cccc(C(F)(F)F)c32)CC1 [Compound 284],blood lipids (CHO) in Apo E−/− mice,"[1]; Time 1, individual mice",0.7986 and 0.8043 and 0.8562 and 0.7873 and 0.8278 and 1.372 and 1.184
same,blood lipids (HDL-C) in Apo E−/− mice,"[1]; Time 1, individual mice",1.371 and 0.5315 and 1.057 and 0.9966 and 1.123 and 1.022 and 1.153
same,blood lipids (LDL-C) in Apo E−/− mice,"[1]; Time 1, individual mice",0.6872 and 1.011 and 0.7654 and 0.5196 and 0.7151 and 1.05 and 1.587
same,blood lipids (TG) in Apo E−/− mice,"[1]; Time 1, individual mice",0.4337 and 0.6308 and 0.6265 and 0.755 and 0.7465 and 0.995 and 1.031
same,blood lipids (CHO) in Apo E−/− mice,"[1]; Time 2, individual mice",1.233 and 0.8693 and 1.165 and 0.9214 and 0.6106 and 1.043 and 0.9931 and 1.18
same,blood lipids (HDL-C) in Apo E−/− mice,"[1]; Time 2, individual mice",2.122 and 0.9935 and 0.9789 and 1.033 and 0.8106 and 1.037 and 1.827 and 1.565
same,blood lipids (LDL-C) in Apo E−/− mice,"[1]; Time 2, individual mice",1.374 and 0.6809 and 2.129 and 1.097 and 0.9183 and 1.393 and 1.144 and 0.9377
same,blood lipids (TG) in Apo E−/− mice,"[1]; Time 2, individual mice",1.051 (2×) and 0.7809 and 1.131 and 1.303 and 1.009 and 1.451 and 1.117
same,blood lipids (CHO) in Apo E−/− mice,"[1]; Time 3, individual mice",1.388 and 0.8444 and 1.354 and 0.78 and 1.427 and 1.407 and 1.241 and 1.477
same,blood lipids (HDL-C) in Apo E−/− mice,"[1]; Time 3, individual mice",2.24 and 0.5362 and 0.9059 and 0.8576 and 1.163 and 1.018 (2×) and 1.067
same,blood lipids (LDL-C) in Apo E−/− mice,"[1]; Time 3, individual mice",1.218 and 0.622 and 1.641 and 0.9017 and 1.494 and 1.215 and 2.628 and 1.406
same,blood lipids (TG) in Apo E−/− mice,"[1]; Time 3, individual mice",0.8373 and 0.8015 and 1.448 and 0.7657 and 0.9226 and 1.222 and 1.943 and 1.2
same,blood lipids (CHO) in Apo E−/− mice,"[1]; Time 4, individual mice",1.59 and 1.257 and 1.396 and 0.4939 and 0.5475 and 1.048 and 1.029 and 1.174
same,blood lipids (HDL-C) in Apo E−/− mice,"[1]; Time 4, individual mice",1.04 and 0.5331 and 1.239 and 0.8199 and 0.5772 and 0.511 and 0.5552 and 1.57
same,blood lipids (LDL-C) in Apo E−/− mice,"[1]; Time 4, individual mice",1.177 and 0.9355 and 0.8511 and 0.1725 and 0.4792 and 1.162 and 1.093 and 0.5061
same,blood lipids (TG) in Apo E−/− mice,"[1]; Time 4, individual mice",1.059 and 0.6674 and 1.093 and 0.7289 and 1.028 and 0.7597 and 1.227 and 1.278
same,atherosclerotic plaques in mice (proportion of arterial plaque area),[2],14.51 and 15.36 and 6.043 and 8.803 and 8.747 and 3.497 and 13.32 and 11.93
same,plaques in the cardiac outflow tracts of mice (proportion of plaques in the left ventricular outflow tract),[3],3.172 and 8.444 and 8.652 and 1.278 and 0.625 and 2.394 and 7.368
same,overall effect on the skin of psoriasis mice (score),"[4]; DAY 0, individual mice",0
same,skin redness in psoriasis mice (score),"[4]; DAY 0, individual mice",0
same,skin scaling in psoriasis mice (score),"[4]; DAY 0, individual mice",0
same,skin thickening in psoriasis mice (score),"[4]; DAY 0, individual mice",0
same,overall effect on the skin of psoriasis mice (score),[4]; [5],1.667 and 1.167 and 1 and 2.333 and 2 and 0.6667
same,skin redness in psoriasis mice (score),[4]; [5],1 and 0.6667 and 0.8333 and 0.5 and 1.167 and 0
same,skin scaling in psoriasis mice (score),[4]; [5],0.1667 (3×) and 0 and 0.8333 and 0.3333
same,skin thickening in psoriasis mice (score),[4]; [5],0.5 (4×) and 0 and 1
same,overall effect on the skin of psoriasis mice (score),[4]; [6],1.5 (2×) and 2 and 1.333 and 2.333 (2×)
same,skin redness in psoriasis mice (score),[4]; [6],0.8333 and 1 and 0.5 (2×) and 0.3333 and 0.1667
same,skin scaling in psoriasis mice (score),[4]; [6],0.1667 and 0.5 and 0.3333 and 0.8333 (2×) and 1
same,skin thickening in psoriasis mice (score),[4]; [6],0.5 (4×) and 1 (2×)
same,overall effect on the skin of psoriasis mice (score),[4]; [7],3.333 (3×) and 2.333 and 2.5 and 2.167
same,skin redness in psoriasis mice (score),[4]; [7],1 (2×) and 0.8333 (2×) and 0.6667 and 0.5
same,skin scaling in psoriasis mice (score),[4]; [7],0.8333 and 0.5 and 1.833 and 0.6667 (2×) and 1.167
same,skin thickening in psoriasis mice (score),[4]; [7],1.5 (2×) and 1 (3×) and 0.5
same,overall effect on the skin of psoriasis mice (score),[4]; [8],2.667 and 3.667 (2×) and 2.833 (2×) and 3
same,skin redness in psoriasis mice (score),[4]; [8],1.333 and 1 (2×) and 0.6667 and 1.167 and 0.8333
same,skin scaling in psoriasis mice (score),[4]; [8],1.333 and 1.667 and 1.167 and 1 and 1.5 (2×)
same,skin thickening in psoriasis mice (score),[4]; [8],0 and 1 (4×) and 0.5
same,overall effect on the skin of psoriasis mice (score),[4]; [9],3 (2×) and 2.667 and 4.333 and 3.5 (2×)
same,skin redness in psoriasis mice (score),[4]; [9],1.5 and 0.6667 (3×) and 1 and 0.5
same,skin scaling in psoriasis mice (score),[4]; [9],1.5 and 1 and 2.333 and 1.333 and 1.833 and 2.5
same,skin thickening in psoriasis mice (score),[4]; [9],0 and 1 (4×) and 0.5
